Measured values published in ChEMBL document CHEMBL4706588, “Rational design and biological evaluation of a new class of thiazolopyridyl tetrahydroacridines as cholinesterase and GSK-3 dual inhibitors for Alzheimer's disease” (Eur J Med Chem, 2020).
Calls of active or inactive are those of the source. No cut-off for these calls is given here.

What was measured:
[1] = target: T1, Dual specificity tyrosine-phosphorylation-regulated kinase 1A (Homo sapiens, UniProt Q13627); assay: Inhibition of DYRK1alpha (unknown origin)
[2] = Effect on swimming speed in ICR mouse model of scopolamine-induced memory impairment at 15 mg/kg, po administered 30 mins prior to scopolamine injection by Morris water maze test; type: ADME, organism-based; settings: in vivo, 0.5 h
Homo sapiens [3] = species: Homo sapiens; assay: Selectivity for GSK3 (unknown origin) over CDK1 (unknown origin)
[4] = target: T2, Glycogen synthase kinase-3 beta (Homo sapiens, UniProt P49841); assay: biochemical
Target sequence in this assay (P49841 whole entry): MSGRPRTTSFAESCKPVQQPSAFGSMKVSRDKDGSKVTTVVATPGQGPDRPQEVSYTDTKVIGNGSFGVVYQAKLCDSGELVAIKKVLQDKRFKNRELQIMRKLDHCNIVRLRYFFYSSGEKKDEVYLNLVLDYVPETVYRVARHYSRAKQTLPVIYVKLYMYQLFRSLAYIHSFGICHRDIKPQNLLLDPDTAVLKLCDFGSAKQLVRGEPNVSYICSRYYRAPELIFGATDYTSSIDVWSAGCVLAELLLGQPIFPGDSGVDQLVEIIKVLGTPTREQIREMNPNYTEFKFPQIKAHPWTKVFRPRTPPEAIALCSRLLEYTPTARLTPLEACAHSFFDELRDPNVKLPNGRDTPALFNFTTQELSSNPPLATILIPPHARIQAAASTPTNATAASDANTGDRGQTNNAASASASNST
Description: Inhibition of recombinant human N-terminal His6-tagged GSK-3beta H350L mutant expressed in baculovirus infected Sf21 cells using GSM as substrate incubated for 30 mins in presence of ATP by kinase-glo luminescence assay

Homo sapiens [5] = species: Homo sapiens; assay: Selectivity for GSK3 (unknown origin) over CDK9 (unknown origin)
[6] = target: Mitogen-activated protein kinase 10 (Homo sapiens) (UniProt P53779); assay: Inhibition of JNK3 (unknown origin) at 300 nM relative to control
Homo sapiens [7] = species: Homo sapiens; assay: Selectivity for GSK3 (unknown origin) over CDK6 (unknown origin)
Homo sapiens [8] = species: Homo sapiens; assay: Selectivity for GSK3 (unknown origin) over ERK2 (unknown origin)
[9] = target: T3, Dual specificity tyrosine-phosphorylation-regulated kinase 1B (Homo sapiens, UniProt Q9Y463); assay: Inhibition of DYRK1beta (unknown origin) at 300 nM relative to control
Target sequence in this assay (Q9Y463 whole entry, looked up): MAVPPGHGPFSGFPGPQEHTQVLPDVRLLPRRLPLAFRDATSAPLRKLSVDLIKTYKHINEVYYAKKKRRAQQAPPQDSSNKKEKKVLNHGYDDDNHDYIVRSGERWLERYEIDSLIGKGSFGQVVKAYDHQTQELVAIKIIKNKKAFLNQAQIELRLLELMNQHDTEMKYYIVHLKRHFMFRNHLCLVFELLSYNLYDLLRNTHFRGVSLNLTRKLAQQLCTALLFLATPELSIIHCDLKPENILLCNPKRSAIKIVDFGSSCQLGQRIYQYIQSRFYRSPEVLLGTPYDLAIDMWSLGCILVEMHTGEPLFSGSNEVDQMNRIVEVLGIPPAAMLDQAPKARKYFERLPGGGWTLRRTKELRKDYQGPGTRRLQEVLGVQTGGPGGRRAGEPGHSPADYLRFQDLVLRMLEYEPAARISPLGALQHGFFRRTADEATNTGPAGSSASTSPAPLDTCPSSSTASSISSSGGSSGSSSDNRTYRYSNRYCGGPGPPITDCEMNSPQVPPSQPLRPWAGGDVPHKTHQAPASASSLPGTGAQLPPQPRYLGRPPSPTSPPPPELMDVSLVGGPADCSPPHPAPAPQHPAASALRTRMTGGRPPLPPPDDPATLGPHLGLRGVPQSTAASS

[10] = target: T1, Dual specificity tyrosine-phosphorylation-regulated kinase 1A; assay: Inhibition of DYRK1alpha (unknown origin) at 300 nM relative to control
Homo sapiens [11] = species: Homo sapiens; assay: Selectivity for GSK3 (unknown origin) over JNK2 (unknown origin)
[12] = target: Glycogen synthase kinase-3 beta (Mus musculus) (UniProt Q9WV60); assay: Inhibition of GSK3beta in mouse N2a cells overexpressing human tau protein assessed as phosphorylated tau Ser396 residue level at 10 uM incubated for 1 hr followed by okadaid-acid addition and measured after 5 hrs by Western blot analysis relative to control; type: cell-based; parameters: scale not given: the % may be the effect or the level left; settings: time 6.0 hrs
[13] = target: Glycogen synthase kinase-3 beta (Mus musculus) (UniProt Q9WV60); assay: Inhibition of GSK3beta in mouse N2a cells overexpressing human tau protein assessed as phosphorylated tau Ser396 residue level at 15 uM incubated for 1 hr followed by okadaid-acid addition and measured after 5 hrs by Western blot analysis relative to control; type: cell-based; parameters: scale not given: the % may be the effect or the level left; settings: time 6.0 hrs
Homo sapiens [14] = species: Homo sapiens; assay: Selectivity for GSK3 (unknown origin) over CDK2 (unknown origin)
[15] = target: Mitogen-activated protein kinase 13 (Homo sapiens) (UniProt O15264); assay: Inhibition of P38delta (unknown origin) at 300 nM relative to control
[16] = target: Mitogen-activated protein kinase 1 (Homo sapiens) (UniProt P28482); assay: Inhibition of ERK2 (unknown origin) at 300 nM relative to control
[17] = target: Mitogen-activated protein kinase 14 (Homo sapiens) (UniProt Q16539); assay: Inhibition of P38alpha (unknown origin) at 300 nM relative to control
[18] = target: Mitogen-activated protein kinase 9 (Homo sapiens) (UniProt P45984); assay: Inhibition of JNK2 (unknown origin) at 300 nM relative to control
Homo sapiens [19] = species: Homo sapiens; assay: Selectivity for GSK3 (unknown origin) over ERK1 (unknown origin)
[20] = target: T2, Glycogen synthase kinase-3 beta; assay: Inhibition of GSK-3beta (unknown origin) at 300 nM relative to control
Target sequence in this assay (P49841 whole entry, looked up): as the sequence (P49841 whole entry) above

Cholinesterase = Cholinesterase (Homo sapiens, UniProt P06276); assay: Inhibition of human BuChE using butyrylthiocholine iodide as substrate preincubated with enzyme for 1 min followed by substrate addition and measured after 10 mins by Ellman's method
Homo sapiens [21] = species: Homo sapiens; assay: Selectivity for GSK3 (unknown origin) over JNK3 (unknown origin)
[22] = target: Mitogen-activated protein kinase 12 (Homo sapiens) (UniProt P53778); assay: Inhibition of P38gamma (unknown origin) at 300 nM relative to control
Homo sapiens [23] = species: Homo sapiens; assay: Selectivity for GSK3 (unknown origin) over MAPK p38 alpha (unknown origin)
[24] = target: Cyclin-dependent kinase 2 (Homo sapiens) (UniProt P24941); assay: Inhibition of CDK2 (unknown origin) at 300 nM relative to control
Homo sapiens [25] = species: Homo sapiens; assay: Selectivity for GSK3 (unknown origin) over MAPK p38 gamma (unknown origin)
Homo sapiens [26] = species: Homo sapiens; assay: Selectivity for GSK3 (unknown origin) over MAPK p38 delta (unknown origin)
[27] = target: Cyclin-dependent kinase 4 (Homo sapiens) (UniProt P11802); assay: Inhibition of CDK4 (unknown origin) at 300 nM relative to control
[28] = target: Glycogen synthase kinase-3 alpha (Homo sapiens) (UniProt P49840); assay: Inhibition of GSK-3alpha (unknown origin) at 300 nM relative to control
N2a = assay: Effect on tau protein expression in mouse N2a cells transfected with human tau protein at 5 to 15 uM incubated for 1 hr followed by okadaid-acid addition and measured after 5 hrs by Western blot analysis; type: functional, cell-based; settings: dose 5-15 µM, time 6.0 hrs
in vitro = settings: PAMPA
Description: Effective permeability of compound at 100 ug/ml incubated for 20 hrs by PAMPA-BBB assay

[29] = target: Glycogen synthase kinase-3 beta (Mus musculus) (UniProt Q9WV60); assay: Inhibition of GSK3beta in mouse N2a cells overexpressing human tau protein assessed as reduction in tau Ser396 residue phosphorylation at 5 uM incubated for 1 hr followed by okadaid-acid addition and measured after 5 hrs by Western blot analysis relative to control; type: cell-based; settings: time 6.0 hrs
[30] = Effect on cell morphology in LPS-treated mouse BV-2 cells at 5 uM pretreated for 1 hr followed by incubation with LPS for 24 hrs by fluorescence microscopic analysis; type: ADME; settings: bv-2, 25 h
Homo sapiens [31] = species: Homo sapiens; assay: Selectivity for GSK3 (unknown origin) over MAPK p38 beta (unknown origin)
[32] = target: T3, Dual specificity tyrosine-phosphorylation-regulated kinase 1B; assay: Inhibition of DYRK1beta (unknown origin)
Target sequence in this assay (Q9Y463 whole entry): as the sequence (Q9Y463 whole entry, looked up) above

Homo sapiens [33] = species: Homo sapiens; assay: Selectivity for GSK3 (unknown origin) over CDK7 (unknown origin)
BV-2 = assay: Inhibition of LPS-induced ROS production in mouse BV-2 cells at 5 uM incubated for 1 hr followed by LPS stimulation and measured after 24 hrs by DCFH-DA staining based inverted fluorescence microscopic analysis; type: functional, cell-based; settings: time 25.0 hrs
Acetylcholinesterase = Acetylcholinesterase (Homo sapiens, UniProt P22303); assay: Inhibition of human AChE using acetylthiocholine iodide as substrate preincubated with enzyme for 1 min followed by substrate addition and measured after 10 mins by Ellman's method
[34] = target: Mitogen-activated protein kinase 3 (Homo sapiens) (UniProt P27361); assay: Inhibition of ERK1 (unknown origin) at 300 nM relative to control
Mus musculus = assay: Cognitive enhancing effect in ICR mouse model of scopolamine-induced memory impairment assessed as improvement in trajectories to platform at 15 mg/kg, po administered 30 mins prior to scopolamine injection by Morris water maze test; type: functional, organism-based
Homo sapiens [35] = species: Homo sapiens; assay: Selectivity for GSK3 (unknown origin) over CDK4 (unknown origin)

Sequence of Glycogen synthase kinase-3 beta (Mus musculus) (Q9WV60 whole entry, looked up): as the sequence (P49841 whole entry) above, with T390P, T392A, A400T, T402A counted along it
Sequence of Mitogen-activated protein kinase 13 (Homo sapiens) (O15264 whole entry): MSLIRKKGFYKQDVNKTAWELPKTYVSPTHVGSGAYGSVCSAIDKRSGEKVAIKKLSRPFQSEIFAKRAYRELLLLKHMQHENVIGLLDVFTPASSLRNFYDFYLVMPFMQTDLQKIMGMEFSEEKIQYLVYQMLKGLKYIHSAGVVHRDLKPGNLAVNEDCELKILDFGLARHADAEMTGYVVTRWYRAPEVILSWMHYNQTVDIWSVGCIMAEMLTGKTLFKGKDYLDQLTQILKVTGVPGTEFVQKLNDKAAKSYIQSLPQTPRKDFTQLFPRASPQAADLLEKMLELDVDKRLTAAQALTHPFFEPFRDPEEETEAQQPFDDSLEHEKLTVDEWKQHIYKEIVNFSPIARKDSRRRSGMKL
Sequence of Mitogen-activated protein kinase 12 (Homo sapiens) (P53778 whole entry): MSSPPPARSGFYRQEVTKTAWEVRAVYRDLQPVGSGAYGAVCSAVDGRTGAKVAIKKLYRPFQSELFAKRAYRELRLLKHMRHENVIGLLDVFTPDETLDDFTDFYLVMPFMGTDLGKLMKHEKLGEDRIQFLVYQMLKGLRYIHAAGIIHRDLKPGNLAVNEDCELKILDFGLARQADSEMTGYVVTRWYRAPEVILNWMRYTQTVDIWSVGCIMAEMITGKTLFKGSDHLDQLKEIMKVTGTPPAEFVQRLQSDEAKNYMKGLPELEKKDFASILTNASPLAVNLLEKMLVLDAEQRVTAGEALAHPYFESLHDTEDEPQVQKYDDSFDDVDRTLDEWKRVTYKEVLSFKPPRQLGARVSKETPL
Sequence of Mitogen-activated protein kinase 9 (Homo sapiens) (P45984 whole entry, looked up): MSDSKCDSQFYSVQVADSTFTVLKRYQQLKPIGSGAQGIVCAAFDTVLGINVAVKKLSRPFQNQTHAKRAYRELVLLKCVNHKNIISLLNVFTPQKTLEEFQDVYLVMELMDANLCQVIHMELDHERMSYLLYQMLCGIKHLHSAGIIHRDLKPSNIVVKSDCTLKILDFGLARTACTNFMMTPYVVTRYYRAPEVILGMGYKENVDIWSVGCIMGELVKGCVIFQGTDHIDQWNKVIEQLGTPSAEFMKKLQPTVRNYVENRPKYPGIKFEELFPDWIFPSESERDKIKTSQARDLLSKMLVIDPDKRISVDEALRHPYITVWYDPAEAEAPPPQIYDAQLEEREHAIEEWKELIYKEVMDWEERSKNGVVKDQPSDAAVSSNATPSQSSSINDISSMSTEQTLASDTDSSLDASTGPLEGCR
Sequence of Acetylcholinesterase (P22303 whole entry): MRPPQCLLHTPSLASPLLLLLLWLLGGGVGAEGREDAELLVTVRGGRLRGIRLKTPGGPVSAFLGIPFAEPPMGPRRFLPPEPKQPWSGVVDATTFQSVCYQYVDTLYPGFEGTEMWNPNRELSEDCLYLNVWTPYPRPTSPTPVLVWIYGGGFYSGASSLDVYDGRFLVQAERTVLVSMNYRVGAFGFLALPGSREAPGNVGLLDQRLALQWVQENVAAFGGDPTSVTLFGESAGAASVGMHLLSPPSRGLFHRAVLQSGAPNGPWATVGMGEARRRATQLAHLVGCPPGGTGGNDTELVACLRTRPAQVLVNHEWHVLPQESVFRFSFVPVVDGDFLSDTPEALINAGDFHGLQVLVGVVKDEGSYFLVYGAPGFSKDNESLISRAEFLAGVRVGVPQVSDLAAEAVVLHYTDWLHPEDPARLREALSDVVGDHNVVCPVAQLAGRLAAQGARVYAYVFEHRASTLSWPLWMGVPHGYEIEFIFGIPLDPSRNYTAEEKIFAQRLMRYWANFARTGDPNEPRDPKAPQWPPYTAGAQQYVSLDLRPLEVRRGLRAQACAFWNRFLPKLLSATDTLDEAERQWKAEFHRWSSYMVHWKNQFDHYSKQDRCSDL
Sequence of Mitogen-activated protein kinase 1 (Homo sapiens) (P28482 whole entry): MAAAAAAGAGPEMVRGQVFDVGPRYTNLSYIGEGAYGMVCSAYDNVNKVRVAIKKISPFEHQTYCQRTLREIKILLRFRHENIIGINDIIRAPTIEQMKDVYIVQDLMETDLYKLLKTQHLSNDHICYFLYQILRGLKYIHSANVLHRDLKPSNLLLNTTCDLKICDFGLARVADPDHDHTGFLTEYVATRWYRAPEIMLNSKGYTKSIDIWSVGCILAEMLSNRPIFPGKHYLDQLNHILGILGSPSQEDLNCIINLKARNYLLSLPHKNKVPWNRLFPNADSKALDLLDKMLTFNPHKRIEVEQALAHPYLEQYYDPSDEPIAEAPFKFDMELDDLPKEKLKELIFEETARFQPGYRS
Sequence of Mitogen-activated protein kinase 3 (Homo sapiens) (P27361 whole entry): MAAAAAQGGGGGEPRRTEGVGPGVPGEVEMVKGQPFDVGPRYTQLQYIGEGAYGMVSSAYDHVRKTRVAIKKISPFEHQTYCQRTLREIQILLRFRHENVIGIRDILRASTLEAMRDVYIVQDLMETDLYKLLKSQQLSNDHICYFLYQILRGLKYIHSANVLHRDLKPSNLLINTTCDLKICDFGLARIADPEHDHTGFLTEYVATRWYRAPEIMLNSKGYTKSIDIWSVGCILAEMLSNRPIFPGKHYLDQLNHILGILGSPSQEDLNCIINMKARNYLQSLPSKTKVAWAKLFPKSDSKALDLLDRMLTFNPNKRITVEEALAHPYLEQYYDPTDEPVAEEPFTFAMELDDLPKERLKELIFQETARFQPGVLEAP
Sequence of Mitogen-activated protein kinase 14 (Homo sapiens) (Q16539 whole entry): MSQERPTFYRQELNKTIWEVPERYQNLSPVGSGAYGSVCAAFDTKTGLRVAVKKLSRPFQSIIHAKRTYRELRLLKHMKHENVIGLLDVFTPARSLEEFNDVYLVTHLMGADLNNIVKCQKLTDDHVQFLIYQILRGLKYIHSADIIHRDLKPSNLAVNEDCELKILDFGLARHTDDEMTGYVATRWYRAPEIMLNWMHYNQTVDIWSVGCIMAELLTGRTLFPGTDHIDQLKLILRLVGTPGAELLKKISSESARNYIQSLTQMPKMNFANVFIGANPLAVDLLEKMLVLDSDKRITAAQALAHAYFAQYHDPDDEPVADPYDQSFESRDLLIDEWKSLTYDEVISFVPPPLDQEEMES
Sequence of Cyclin-dependent kinase 4 (Homo sapiens) (P11802 whole entry): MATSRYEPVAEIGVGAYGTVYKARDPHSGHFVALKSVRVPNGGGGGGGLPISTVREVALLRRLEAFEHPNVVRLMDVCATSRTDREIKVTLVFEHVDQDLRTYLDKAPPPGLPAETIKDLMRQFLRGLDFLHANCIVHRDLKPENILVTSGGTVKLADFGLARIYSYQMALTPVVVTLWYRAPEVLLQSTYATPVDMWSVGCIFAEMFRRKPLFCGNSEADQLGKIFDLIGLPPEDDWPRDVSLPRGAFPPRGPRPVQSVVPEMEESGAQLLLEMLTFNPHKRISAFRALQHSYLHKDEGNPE

## CNC(=O)c1sc(-c2ccnc(NC(=O)CNCCNc3c4c(nc5ccccc35)CCCC4)c2)nc1OCC1CC1
[1]
  IC50: 28.3 nM
[2]
  Activity: Non-Toxic
Homo sapiens [3]
  Selectivity ratio: 100
[4]
  IC50: 22 nM
Homo sapiens [5]
  Selectivity ratio: 100
[6]
  inhibition: 16.7%
Homo sapiens [7]
  Selectivity ratio: 100
Homo sapiens [8]
  Selectivity ratio: 100
[9]
  inhibition: 67.9%
[10]
  inhibition: 83.7%
Homo sapiens [11]
  Selectivity ratio: 100
[12]
  Activity: 25.8%
[13]
  Activity: 17%
Homo sapiens [14]
  Selectivity ratio: 100
[15]
  inhibition: 20.6%
[16]
  inhibition: 9.78%
[17]
  inhibition: 5.21%
[18]
  inhibition: 29.8%
Homo sapiens [19]
  Selectivity ratio: 100
[20]
  inhibition: 86.3%
Cholinesterase
  IC50: 150 nM
Homo sapiens [21]
  Selectivity ratio: 100
[22]
  inhibition: 7.64%
Homo sapiens [23]
  Selectivity ratio: 100
[24]
  inhibition: 3.8%
Homo sapiens [25]
  Selectivity ratio: 100
Homo sapiens [26]
  Selectivity ratio: 100
[27]
  inhibition: 3.07%
[28]
  inhibition: 91.1%
N2a
  Activity: inactive
In vitro
  Papp at 20 h, 100 ug/ml: 6.9 ×10⁻⁶ cm/s
[29]
  inhibition: 49%
[30]
  Activity: Non-Toxic
Homo sapiens [31]
  Selectivity ratio: 100
[32]
  IC50: 120 nM
Homo sapiens [33]
  Selectivity ratio: 100
BV-2
  inhibition: Active
Acetylcholinesterase
  IC50: 1.2 nM
[34]
  inhibition: 13.1%
Mus musculus
  Activity: Active
Homo sapiens [35]
  Selectivity ratio: 100
